Key:
[1] = system: IL-1β release by human keratinocytes; experiment: IL-1β release by human keratinocytes (ELISA), unstimulated, UVB or PMA stimulated; type: cell-based; settings: dexamethasone 0.1 μM
Method: • Reference 1: (PGE2 induction): Indomethacin (Sigma 17378), tested at 1 μM (final) • Reference 2: (IL1β induction): Dexamethazone (Sigma D1756), tested at 0.1 μM (final) Treatments and Assays
Other plates were kept in the dark.
After thawing and centrifugation of the medium, the content in PGE2 was measured in ELISA with a R&D Systems kit (DE0100), according to the recommended protocol of the supplier. The IL1β content was measured in ELISA with a Immunotech kit (1042), according to the recommended protocol of the supplier.
The raw data were transformed and treated by the software PRISM® (Graph Pad Software). The intergroup comparisons were realized by analysis of variance (ANOVA), with the multiple comparison test DUNNETT.

[2] = system: C57BL/6 mice spleen lymphocytes; experiment: Stimulation of spleen lymphocytes by supernatants of treated peritoneal macrophages (MTS/PMS); type: cell-based
Method: FIG. 1 is a graphic illustrating the levels of stimulation of the C57BL/6 mice spleen lymphocytes incubated in vitro with macrophage supernatants treated with various concentrations of chitosan oligomers and glucosamine in (A) with and without the presence of peptidoglycan (B), as measured by the activity of the mitochondrial dehydrogenase on formazan salts (MTS/PMS) after 72 hrs of incubation (n=3).
The first experiment consisted in verifying if Product W was able to induce an […] effect. With this in mind, various concentrations of Product W (10 to 160 μg/ml) were incubated with peritoneal macrophages during a 24 hour period and the immunostimulating properties of the supernatants were measured on C57BL/6 mice spleen lymphocytes. The metabolic activity of spleen lymphocytes was measured by the level of Formazan salts transformation (mitochondrial dehydrogenase: MTS/PMS). As control, the dimer of glucosamine (product A), the trimer of glucosamine (product B) and a mixture of dimer-trimer in a ratio of 40:60 (mixture AB) was also studied and the results compared with those induced by glucosamine (product D). Positive controls of pro-inflammatory substances were added, such as lipopolysaccharides of E. coli (LPS) and peptidoglycan of S. Aureus (PEP).
In a second experiment, the macrophages were stimulated by peptidoglycan, (that has a stronger activation on the inflammatory response than LPS), and the capacity of products A, B, AB and W to decrease the stimulation of the lymphocytes was evaluated. […] The reduction induced by Product W, though slight, seems stronger than that induced by glucosamine (product D).

[3] = system: IL-6 production in mice macrophages C57BL/6; experiment: IL-6 production in macrophages (ELISA); type: cell-based, C57BL/6 mice; settings: non-activated macrophages
Method: FIG. 3 is a graphic illustrating the levels of IL-6 production in mice macrophages C57BL/6 treated in vitro with various concentrations of chitosan oligomers and glucosamine (A) with and without the presence of peptidoglycan (B), as measured by an ELISA test (n=3). […] LPS and PEP were added as positive controls. Non-activated macrophages were treated with products A, B and W and the IL-6 production was compared with the effects of glucosamine (product D). LPS and PEP were added as positive controls.

[4] = system: prostaglandin E2 (PGE2) release by human keratinocytes; experiment: PGE2 release by human keratinocytes (ELISA), unstimulated, UVB or PMA stimulated; type: cell-based
Method: The objectives of the present study are to evaluate the anti-inflammatory effects of two chitosan oligosaccharides (product […] and product […]) according to the present invention, and, more particularly on prostaglandin E2 (PGE2) and IL-1β release by human keratinocytes under a UVB irradiation. […] Other plates were kept in the dark. […] After thawing and centrifugation of the medium, the content in PGE2 was measured in ELISA with a R&D Systems kit (DE0100), according to the recommended protocol of the supplier. The IL1β content was measured in ELISA with a Immunotech kit (1042), according to the recommended protocol of the supplier. The raw data were transformed and treated by the software PRISM® (Graph Pad Software). The intergroup comparisons were realized by analysis of variance (ANOVA), with the multiple comparison test […].

[5] = system: IL-10 production in mice macrophages C57BL/6; experiment: IL-10 production in macrophages (ELISA); type: cell-based, C57BL/6 mice
Method: LPS and PEP were added as positive controls. We then verified the IL-10 production levels, a very powerful anti-inflammatory cytokine. Peritoneal macrophages are normally good producers of IL-10 since a normal intestinal system requires a high immunological tolerance to operate correctly. Non-activated macrophages were incubated with the various products, as well as LPS and PEP as positive controls, during 24 hours.

[6] = system: TNF-α production in C57BL/6 mice macrophages; experiment: TNF-α production in macrophages (ELISA); type: cell-based; settings: macrophages activated by PEP
Method: LPS and PEP were added as positive controls. The first cytokine studied was tumor necrosis factor (TNF-α) which is the first cytokine produced and induces the production of the other pro-inflammatory cytokines.

[7] = supernatants of non-activated macrophages, 10 to 160 μg/ml, 24 hour
[8] = no stimulation, indomethacin 1 μM

C[C@@H]1C[C@H]2[C@@H]3CCC4=CC(=O)C=C[C@]4(C)[C@@]3(F)[C@@H](O)C[C@]2(C)[C@@]1(O)C(=O)CO [dexamethasone, Dexamethazone]
IL1β ([1]; PMA stimulation 1 μg/ml): 0.2 pg/mL
IL1β % (of control) ([1]; PMA stimulation): 5%
IL-1β % (of control) ([1]; no stimulation): 8%

N[C@H]1[C@H](O[C@H]2[C@H](O)[C@@H](N)[C@H](O[C@H]3[C@H](O)[C@@H](N)C(O)O[C@@H]3CO)O[C@@H]2CO)O[C@H](CO)[C@@H](O)[C@@H]1O (stereo partly drawn) [Product B]
effect on lymphocyte stimulation induced by PEP (in words), FIG. 1B ([2]; macrophages stimulated by peptidoglycan (PEP)): with the weakest concentration tested was able to decrease this stimulation
effect on lymphocyte activity (in words), FIG. 1A [2, 7]: slight stimulation with the smallest doses only
effect on IL-6 production (in words), FIG. 3A [3]: increase

N[C@H]1[C@H](O[C@H]2[C@H](O)[C@@H](N)C(O)O[C@@H]2CO)O[C@H](CO)[C@@H](O)[C@@H]1O (stereo partly drawn) [Product A]
effect on lymphocyte activity (in words), FIG. 1A ([2]; non-activated macrophages, 80 μg/ml): slight increase
effect on lymphocyte activity (in words), FIG. 1A ([2]; non-activated macrophages, 10 μ/ml): slight decrease
effect on IL-6 production (in words), FIG. 3A [3]: slightly decrease

COc1ccc2c(c1)c(CC(=O)O)c(C)n2C(=O)c1ccc(Cl)cc1 [Indomethacin]
effect on PGE2 release induced by PMA (in words) ([4]; PMA stimulation): totally blocked the PGE2 production/release
PGE2 ([4]; PMA stimulation 1 μg/ml, indomethacin 1 μM): 10 pg/mL
PGE2 % (of control) ([4]; PMA stimulation, indomethacin 1 μM): 0%
effect on PGE2 release (in words) ([4]; UVB stimulation): significantly reduced the PGE2 release
PGE2 ([4]; UVB stimulation 250 mJ/cm2, indomethacin 1 μM): 7.3 pg/mL
PGE2 % (of control) ([4]; UVB stimulation, indomethacin 1 μM): 22%
PGE2 [4, 8]: 0.9 pg/mL
PGE2 % (of control) [4, 8]: 8%
effect on basal PGE2 production/release (in words) [4, 8]: apparently totally blocked the production/release of this basal level

N[C@H]1C(O)O[C@H](CO)[C@@H](O)[C@@H]1O (stereo partly drawn) [glucosamine]
effect on IL-10 production (in words), FIG. 4B ([5]; macrophages activated by PEP): no detectable effect
effect on IL-10 production (in words), FIG. 4A ([5]; non-activated macrophages, 24 hours): slightly increased the IL-10 production
effect on TNF-α (in words), FIG. 2B ([6]; 10 μg/ml): increased the level of TNF-α
effect on TNF-α (in words), FIG. 2B ([6]; highest concentration): induced a reduction
effect on lymphocyte activity (in words), FIG. 1A [2, 7]: slightly increased the lymphocyte activity
effect on IL-6 production (in words), FIG. 3A [3]: did not modify this cytokine
